# Data taken from PubChem BioAssay AID1259407 (Chemical Carcinogenesis Research Information System (CCRIS), 2018).
# Calls of active or inactive are those of the source. The rule behind the calls is not given here.
# System: CCRIS mutagenicity, Ames/micronucleus/aberration tests
# Assay: CCRIS mutagenicity studies
smiles,measurement,setting,value
Cn1c(N)nc2c3cccnc3ccc21,mutagenic call,"End Point: IN VIVO MICRONUCLEUS, Test System: BONE MARROW POLYCHROMATIC ERYTHROCYTES, Species: MOUSE, Strain/Sex: BALB/C/MALE, Route: IP INJECTION",inactive; negative
same,mutagenic call,"Test System: AMES SALMONELLA TYPHIMURIUM, Strain/Indicator: RAT, LIVER, MICROSOMES, Metabolic Activation: TA98, Method: PREINCUBATION",active; positive
same,mutagenic call,"Test System: AMES SALMONELLA TYPHIMURIUM, Strain/Indicator: RAT, LIVER, S-9, Metabolic Activation: TA98, Method: PREINCUBATION",active; positive
same,mutagenic call,"Test System: AMES SALMONELLA TYPHIMURIUM, Strain/Indicator: TA98 (1,8-DNP6), Metabolic Activation: RAT, LIVER, S-9, AROCLOR, Method: PREINCUBATION",inactive; negative
same,mutagenic call,"Test System: AMES SALMONELLA TYPHIMURIUM, Strain/Indicator: TA98(1,8-DNP6), Metabolic Activation: RAT, LIVER, S-9, Method: STANDARD PLATE",inactive; negative
same,mutagenic call,"Test System: AMES SALMONELLA TYPHIMURIUM, Strain/Indicator: TA98, Metabolic Activation: CYNOMOLGUS MONKEY, LIVER, MICROSOMES, Method: PREINCUBATION",active; positive
same,mutagenic call,"Test System: AMES SALMONELLA TYPHIMURIUM, Strain/Indicator: TA98, Metabolic Activation: CYNOMOLOGUS MONKEY, LIVER, MICROSOMES, 2,3,7,8-TETRACHLORODIBENZO-P-DIOXIN, Method: PREINCUBATION",active; positive
same,mutagenic call,"Test System: AMES SALMONELLA TYPHIMURIUM, Strain/Indicator: TA98, Metabolic Activation: CYNOMOLOGUS MONKEY, LIVER, MICROSOMES, 2-AMINO-3-METHYLIMIDAZO[4,5-F]QUINOLINE, Method: PREINCUBATION",active; positive
same,mutagenic call,"Test System: AMES SALMONELLA TYPHIMURIUM, Strain/Indicator: TA98, Metabolic Activation: CYNOMOLOGUS MONKEY, LIVER, MICROSOMES, RIFAMPICIN, Method: PREINCUBATION",active; positive
same,mutagenic call,"Test System: AMES SALMONELLA TYPHIMURIUM, Strain/Indicator: TA98, Metabolic Activation: HAMSTER, LIVER, S-9, AROCLOR 1254, Method: PREINCUBATION",active; positive
same,mutagenic call,"Test System: AMES SALMONELLA TYPHIMURIUM, Strain/Indicator: TA98, Metabolic Activation: HAMSTER, LIVER, S-9, Method: PREINCUBATION",active; positive
same,mutagenic call,"Test System: AMES SALMONELLA TYPHIMURIUM, Strain/Indicator: TA98, Metabolic Activation: HUMAN, BLOOD, CYTOSOL, Method: PREINCUBATION",active; positive
same,mutagenic call,"Test System: AMES SALMONELLA TYPHIMURIUM, Strain/Indicator: TA98, Metabolic Activation: HUMAN, LIVER, MICROSOMES, Method: PREINCUBATION",active; positive
same,mutagenic call,"Test System: AMES SALMONELLA TYPHIMURIUM, Strain/Indicator: TA98, Metabolic Activation: MONKEY, LIVER, MICROSOMES, Method: PREINCUBATION",active; positive
same,mutagenic call,"Test System: AMES SALMONELLA TYPHIMURIUM, Strain/Indicator: TA98, Metabolic Activation: MONKEY, LIVER, S-9, Method: PREINCUBATION",active; positive
same,mutagenic call,"Test System: AMES SALMONELLA TYPHIMURIUM, Strain/Indicator: TA98, Metabolic Activation: MOUSE, LIVER, HEPATOCYTES",active; positive
same,mutagenic call,"Test System: AMES SALMONELLA TYPHIMURIUM, Strain/Indicator: TA98, Metabolic Activation: MOUSE, LIVER, HEPATOCYTES, 2,3,7,8-TETRACHLORODIBENZO-P-DIOXIN",active; positive
same,mutagenic call,"Test System: AMES SALMONELLA TYPHIMURIUM, Strain/Indicator: TA98, Metabolic Activation: MOUSE, LIVER, MICROSOMES",active; positive
same,mutagenic call,"Test System: AMES SALMONELLA TYPHIMURIUM, Strain/Indicator: TA98, Metabolic Activation: MOUSE, LIVER, MICROSOMES, 2,3,7,8-TETRACHLORODIBENZO-P-DIOXIN",active; positive
same,mutagenic call,"Test System: AMES SALMONELLA TYPHIMURIUM, Strain/Indicator: TA98, Metabolic Activation: MOUSE, LIVER, MICROSOMES, TCDD, Method: STANDARD PLATE",active; positive
same,mutagenic call,"Test System: AMES SALMONELLA TYPHIMURIUM, Strain/Indicator: TA98, Metabolic Activation: MOUSE, LIVER, MICROSOMES, Method: STANDARD PLATE",active; positive
same,mutagenic call,"Test System: AMES SALMONELLA TYPHIMURIUM, Strain/Indicator: TA98, Metabolic Activation: MOUSE, LIVER, S-9, Method: PREINCUBATION",active; positive
same,mutagenic call,"Test System: AMES SALMONELLA TYPHIMURIUM, Strain/Indicator: TA98, Metabolic Activation: NONE, Method: PREINCUBATION",inactive; negative
same,mutagenic call,"Test System: AMES SALMONELLA TYPHIMURIUM, Strain/Indicator: TA98, Metabolic Activation: NONE, Method: STANDARD PLATE",inactive; negative
same,mutagenic call,"Test System: AMES SALMONELLA TYPHIMURIUM, Strain/Indicator: TA98, Metabolic Activation: PATAS MONKEY, LIVER, MICROSOMES, Method: PREINCUBATION",active; positive
same,mutagenic call,"Test System: AMES SALMONELLA TYPHIMURIUM, Strain/Indicator: TA98, Metabolic Activation: RAT LIVER, CYTOSOL, AROCLOR 1254, Method: STANDARD PLATE",inactive; negative
same,mutagenic call,"Test System: AMES SALMONELLA TYPHIMURIUM, Strain/Indicator: TA98, Metabolic Activation: RAT LIVER, MICROSOMES, AROCLOR 1254, Method: STANDARD PLATE",active; positive
same,mutagenic call,"Test System: AMES SALMONELLA TYPHIMURIUM, Strain/Indicator: TA98, Metabolic Activation: RAT, LIVER, HEPATOCYTES, AROCLOR 1254, Method: PREINCUBATION",active; positive
same,mutagenic call,"Test System: AMES SALMONELLA TYPHIMURIUM, Strain/Indicator: TA98, Metabolic Activation: RAT, LIVER, HEPATOCYTES, Method: PREINCUBATION",active; positive
same,mutagenic call,"Test System: AMES SALMONELLA TYPHIMURIUM, Strain/Indicator: TA98, Metabolic Activation: RAT, LIVER, MICROSOMES, Method: PREINCUBATION",active; positive
same,mutagenic call,"Test System: AMES SALMONELLA TYPHIMURIUM, Strain/Indicator: TA98, Metabolic Activation: RAT, LIVER, S-9, 3-METHYLCHOLANTHRENE, Method: PREINCUBATION",active; positive
same,mutagenic call,"Test System: AMES SALMONELLA TYPHIMURIUM, Strain/Indicator: TA98, Metabolic Activation: RAT, LIVER, S-9, AROCLOR, Method: PREINCUBATION",active; positive
same,mutagenic call,"Test System: AMES SALMONELLA TYPHIMURIUM, Strain/Indicator: TA98, Metabolic Activation: RAT, LIVER, S-9, N-BENZYLIMIDAZOLE, Method: PREINCUBATION",active; positive
same,mutagenic call,"Test System: AMES SALMONELLA TYPHIMURIUM, Strain/Indicator: TA98, Metabolic Activation: RAT, LIVER, S-9, PHENOBARBITONE, Method: PREINCUBATION",active; positive
same,mutagenic call,"Test System: AMES SALMONELLA TYPHIMURIUM, Strain/Indicator: TA98, Metabolic Activation: RAT, LIVER, S-9, Method: STANDARD PLATE",active; positive
same,mutagenic call,"Test System: AMES SALMONELLA TYPHIMURIUM, Strain/Indicator: TA98, Method: STANDARD PLATE",active; positive
same,mutagenic call,"Test System: AMES SALMONELLA TYPHIMURIUM, Strain/Indicator: TA100, Metabolic Activation: NONE, Method: PREINCUBATION",inactive; negative
same,mutagenic call,"Test System: AMES SALMONELLA TYPHIMURIUM, Strain/Indicator: TA100, Metabolic Activation: RAT, LIVER, S-9, AROCLOR 1254, Method: PREINCUBATION",active; positive
same,mutagenic call,"Test System: AMES SALMONELLA TYPHIMURIUM, Strain/Indicator: YG1019, Metabolic Activation: RAT LIVER S-9, AROCLOR, Method: PREINCUBATION",active; positive
same,mutagenic call,"Test System: AMES SALMONELLA TYPHIMURIUM, Strain/Indicator: YG1024, Metabolic Activation: RAT, LIVER, S-9, AROCLOR, Method: PREINCUBATION",active; positive
same,mutagenic call,"Test System: CHINESE HAMSTER V-79, Strain/Indicator: V-79/6-THIOGUANINE, Metabolic Activation: RAT, LIVER, HEPATOCYTES, AROCLOR 1254",active; positive
same,mutagenic call,"Test System: CHINESE HAMSTER V-79, Strain/Indicator: V-79/6-THIOGUANINE, Metabolic Activation: RAT, LIVER, S-9, AROCLOR 1254",inactive; negative
same,mutagenic call,"Test System: E. COLI, Strain/Indicator: CC109, Metabolic Activation: RAT, LIVER, S-9, AROCLOR 1254, Method: STANDARD PLATE",active; positive
same,mutagenic call,"Test System: E. COLI, Strain/Indicator: CC110, Metabolic Activation: RAT, LIVER, S-9, AROCLOR 1254, Method: STANDARD PLATE",active; positive
same,mutagenic call,"Test System: E. COLI, Strain/Indicator: DJ3109, Metabolic Activation: RAT, LIVER, S-9, AROCLOR 1254, Method: STANDARD PLATE",active; positive
same,mutagenic call,"Test System: E. COLI, Strain/Indicator: DJ3110, Metabolic Activation: RAT, LIVER, S-9, AROCLOR 1254, Method: STANDARD PLATE",active; positive
same,mutagenic call,"Test System: E. COLI, Strain/Indicator: DJ3209, Metabolic Activation: RAT, LIVER, S-9, AROCLOR 1254, Method: STANDARD PLATE",active; positive
same,mutagenic call,"Test System: E. COLI, Strain/Indicator: DJ3210, Metabolic Activation: RAT, LIVER, S-9, AROCLOR 1254, Method: STANDARD PLATE",active; positive
same,mutagenic call,"Test System: UDS HAMSTER HEPATOCYTES, Strain/Indicator: THY INCORP, Metabolic Activation: NONE, Method: LIQUID SCINTILLATION COUNTING",active; positive
same,mutagenic call,"Test System: UDS HUMAN HEPATOCYTES, Strain/Indicator: THY INCORP, Metabolic Activation: NONE, Method: AUTORADIOGRAPHY",active; positive
same,mutagenic call,"Test System: UDS MOUSE HEPATOCYTES, Strain/Indicator: THY INCORP, Metabolic Activation: NONE, Method: AUTORADIOGRAPHY",active; positive
same,mutagenic call,"Test System: UDS RAT HEPATOCYTES, Strain/Indicator: THY INCORP, Metabolic Activation: NONE, Method: AUTORADIOGRAPHY",inactive; negative
same,mutagenic call,"Test System: UDS RAT HEPATOCYTES, Strain/Indicator: THY INCORP, Metabolic Activation: NONE, Method: LIQUID SCINTILLATION COUNTING",inactive; negative
